Data published in US12545660B2, “Crystalline forms of a farnesoid X receptor agonist” (ELI LILLY AND COMPANY, priority 2020, dated 2026).

How the values were obtained:
[1] = Dynamic Vapor Sorption (DVS); assay type: physicochemical; settings: for water content at 95% RH (DVS) / hygroscopicity (DVS): 25° C.; for water content at 95% RH (DVS): two complete sorption/desorption cycles; for hygroscopicity (DVS): DVS isotherm
Experimental: Sorption isotherms were obtained using a SMS DVS Intrinsic moisture sorption analyzer, controlled by DVS Intrinsic Control software v1.0.1.2 (or v1.0.1.3). The sample temperature was maintained at 25° C. by the instrument controls. The humidity was controlled by mixing streams of dry and wet nitrogen, with a total flow rate of 200 ml/min. The relative humidity (RH) was measured by a calibrated Rotronic probe (dynamic range of 1.0-100% RH), located near the sample. The weight change, (mass relaxation) of the sample as a function of % RH was constantly monitored by the microbalance (accuracy ±0.005 mg).

hFXR = biological target: T1, hFXR (Homo sapiens, UniProt Q96RI1); assay: In Vitro FXR Assay (TK); assay type: cell-based; settings: CV-1 cells transfected with hFXR, hRXR, TK-ECRE-luc and pCMX-YFP; incubated 18 hrs; luminescence
T1 construct: expressed in transfected cells; host or cells: CV-1 cells
T1 sequence (Q96RI1 1-486): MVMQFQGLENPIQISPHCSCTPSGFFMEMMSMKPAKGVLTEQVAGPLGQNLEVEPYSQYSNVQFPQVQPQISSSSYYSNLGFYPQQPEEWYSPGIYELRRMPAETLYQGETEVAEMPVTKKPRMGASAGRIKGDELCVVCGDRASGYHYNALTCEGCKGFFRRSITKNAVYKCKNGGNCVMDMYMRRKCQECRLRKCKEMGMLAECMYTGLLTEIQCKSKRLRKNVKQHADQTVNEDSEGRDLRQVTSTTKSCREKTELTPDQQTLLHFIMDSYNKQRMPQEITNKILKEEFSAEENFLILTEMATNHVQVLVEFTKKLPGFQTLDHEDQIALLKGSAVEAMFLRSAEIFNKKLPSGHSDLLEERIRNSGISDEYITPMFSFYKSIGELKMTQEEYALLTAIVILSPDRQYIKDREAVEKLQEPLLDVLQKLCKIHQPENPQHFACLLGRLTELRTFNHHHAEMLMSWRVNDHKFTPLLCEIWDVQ
T1 sequence (P19793 1-462 partner): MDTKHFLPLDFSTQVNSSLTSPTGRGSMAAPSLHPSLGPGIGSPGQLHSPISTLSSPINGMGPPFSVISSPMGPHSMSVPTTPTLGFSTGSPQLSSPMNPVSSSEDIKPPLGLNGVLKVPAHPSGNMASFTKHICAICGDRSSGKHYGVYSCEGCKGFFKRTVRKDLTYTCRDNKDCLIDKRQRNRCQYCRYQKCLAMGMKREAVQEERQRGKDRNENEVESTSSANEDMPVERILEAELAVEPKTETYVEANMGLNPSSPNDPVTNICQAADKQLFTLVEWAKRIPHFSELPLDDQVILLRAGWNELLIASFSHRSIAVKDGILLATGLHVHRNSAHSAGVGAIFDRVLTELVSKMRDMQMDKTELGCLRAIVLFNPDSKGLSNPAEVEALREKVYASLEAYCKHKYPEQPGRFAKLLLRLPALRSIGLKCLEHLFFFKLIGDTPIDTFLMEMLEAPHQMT
Experimental: Example 10: In Vitro FXR Assay (TK)
CV-1 were seeded at a density of 2,000,000 cells in a T175 flask with DMEM+10% charcoal double-stripped FBS and incubated at 37° C. in 5% CO2 for 18 h (O/N).
After 18 h of incubation, the medium in the T175 flask was changed with fresh DMEM+10% charcoal super-stripped serum. In a polypropylene tube, 2500 μL OptiMEM (Life Technologies, Cat #31985-062) was combined with expression plasmids for hFXR, hRXR, TK-ECRE-luc and pCMX-YFP. The tube was then briefly vortexed and incubated at room temperature for 5 minutes. Transfection reagent (X-tremeGENE HP from Roche, Cat #06 366 236 001) was added to the OptiMEM/plasmid mixture vortexed and incubated at room temperature for 20 minutes. Following incubation, the transfection reagent/DNA mixture complex was added to cells in the T175 flask and the cells were incubated at 37° C. in 5% CO2 for 18 h (O/N).
Compound 1 was serially diluted in DMSO and added to transfected CV-1 cells. The cells were then incubated for 18 hrs. The next day cells were lysed and examined for luminescence. Compound 1 TK hFXR: EC50≤0.01 μM.

| Compound | water content at 95% RH (DVS) [1] | hygroscopicity (DVS) [1] | changes in the XRPD pattern of post-DVS samples [1] | EC50 (hFXR) |
| --- | --- | --- | --- | --- |
| COc1ccc(C23CCC(CN(c4cc(-c5cnn(C(C)(C)C)c5)ccn4)C(=O)[C@H]4CC[C@H](OC(=O)N5CC(O)C5)CC4)(CC2)CC3)cc1C [Form 2 of Compound 1, 4-((4-(1-(tert-butyl)-1H-pyrazol-4-yl)pyridin-2-yl)((4-(4-methoxy-3-methylphenyl)bicyclo[2.2.2]octan-1-yl)methyl)carbamoyl)cyclohexyl 3-hydroxyazetidine-trans-1-carboxylate] | 1.0% | only slightly hygroscopic | no significant changes | – |
| COc1ccc(C23CCC(CN(c4cc(-c5cnn(C(C)(C)C)c5)ccn4)C(=O)[C@H]4CC[C@H](OC(=O)N5CC(O)C5)CC4)(CC2)CC3)cc1C [Compound 1, 4-((4-(1-(tert-butyl)-1H-pyrazol-4-yl)pyridin-2-yl)((4-(4-methoxy-3-methylphenyl)bicyclo[2.2.2]octan-1-yl)methyl)carbamoyl)cyclohexyl 3-hydroxyazetidine-trans-1-carboxylate] | – | – | – | ≤ 10 nM |
| COc1ccc(C23CCC(CN(c4cc(-c5cnn(C(C)(C)C)c5)ccn4)C(=O)[C@H]4CC[C@H](OC(=O)N5CC(O)C5)CC4)(CC2)CC3)cc1C [Form 1 of Compound 1, 4-((4-(1-(tert-butyl)-1H-pyrazol-4-yl)pyridin-2-yl)((4-(4-methoxy-3-methylphenyl)bicyclo[2.2.2]octan-1-yl)methyl)carbamoyl)cyclohexyl 3-hydroxyazetidine-trans-1-carboxylate] | 1.2% | only slightly hygroscopic | no significant changes | – |

Next, values leading:

| water content at 95% RH (DVS) [1] | hygroscopicity (DVS) [1] | changes in the XRPD pattern of post-DVS samples [1] | EC50 (hFXR) | Compound |
| --- | --- | --- | --- | --- |
| 1.9% | only slightly hygroscopic | no significant changes | – | COc1ccc(C23CCC(CN(c4cc(-c5cnn(C(C)(C)C)c5)ccn4)C(=O)[C@H]4CC[C@H](OC(=O)N5CC(O)C5)CC4)(CC2)CC3)cc1C [Form 4 of Compound 1, 4-((4-(1-(tert-butyl)-1H-pyrazol-4-yl)pyridin-2-yl)((4-(4-methoxy-3-methylphenyl)bicyclo[2.2.2]octan-1-yl)methyl)carbamoyl)cyclohexyl 3-hydroxyazetidine-trans-1-carboxylate] |
| 1.2% | only slightly hygroscopic | no significant changes | – | COc1ccc(C23CCC(CN(c4cc(-c5cnn(C(C)(C)C)c5)ccn4)C(=O)[C@H]4CC[C@H](OC(=O)N5CC(O)C5)CC4)(CC2)CC3)cc1C [Form 3 of Compound 1, 4-((4-(1-(tert-butyl)-1H-pyrazol-4-yl)pyridin-2-yl)((4-(4-methoxy-3-methylphenyl)bicyclo[2.2.2]octan-1-yl)methyl)carbamoyl)cyclohexyl 3-hydroxyazetidine-trans-1-carboxylate] |
